Results on 23 compounds are retold here after PubChem BioAssay (NCI).

What all share (assay): NCI anticancer screen, dose series, 48 h
Experiment [1] concerns OVCAR-4 ovarian.
Experiment [2] relates to MOLT-4 leukemia.
Experiment [3] has as its system NCI-H460 lung.
Experiment [4] has as its system HS 578T breast.
Experiment [5] concerns CCRF-CEM leukemia.
In experiment [6] the test system is PC-3 prostate.
The test system of experiment [7] is HT29 colon.
The subject of experiment [8] is T-47D breast.
The subject of experiment [9] is BT-549 breast.
The test system of experiment [10] is K-562 leukemia.

Where “and” joins values, the source holds several entries; their conditions need not be identical. Equal entries are not always repeated.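 Where inhibition never reached the appropriate level, the endpoint shown equals the highest concentration tested. Otherwise, values were interpolated linearly from a five-concentration, 48-hour dose response in 96-well plates. Here, GI50 denotes the concentration required for 50% inhibition of growth. TGI: concentration producing complete growth inhibition.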

For the compound `O=C(O)CSC(CC(=O)c1ccc(Cl)cc1)c1ccc(Cl)cc1` (stereo not given), the TGI in experiment [1] is above 100 µM; in [2], 27 µM; in [3], above 100 µM; in experiment [4], above 100 µM; in [5], 36.3 µM; in [6], above 100 µM. The TGI was above 100 µM in [7], 98.4 µM in experiment [8], 80.7 µM in experiment [9] and above 100 µM in experiment [10].

Regarding `C[n+]1cccc2ccc3cccnc3c21`, the TGI was above 100 µM in experiment [1]; above 100 µM in experiment [2]; above 100 µM in experiment [3]; 64.3 µM in experiment [4]; above 100 µM in [5]; above 100 µM in experiment [6]. Moreover, the TGI in experiment [7] is above 100 µM; in experiment [8], 96.5 µM; in experiment [9], above 100 µM; in experiment [10] it was above 100 µM.

With `Nc1[nH]c(=O)nc2c1ncn2C1OC(CO)C(O)C1O` (stereo not given), the TGI in experiment [1] was above 100 µM; in experiment [2], 63.3 µM; in experiment [3], above 100 µM; in [4] it was above 100 µM; in [5] it was 75.3 µM; in [6] it was 60.2 µM. In addition, the TGI was above 100 µM in experiment [7], 70.3 µM in [8], above 100 µM in [9] and above 100 µM in experiment [10].

With `N#Cc1c(NC(=S)Nc2ccc(Cl)cc2)sc2c1CCN(N1CCc3c(sc(NC(=S)Nc4ccc(Cl)cc4)c3C#N)C1)C2`, the TGI in experiment [1], in experiment [2], in experiment [3], in experiment [4], in experiment [5] and in [6] was above 100 µM in each case. Further, the TGI in [7] was 26.5 µM; in experiment [8] it was above 100 µM; in [9] it was above 100 µM; in [10], above 100 µM.

Turning to `COc1cc2c(cc1OC)C(=O)N(c1ccc(OCCN3CCCC3)cc1)C2`, the TGI in experiment [1], in experiment [2], in [3], in experiment [4], in experiment [5] and in experiment [6] was above 100 µM throughout. Further, the TGI in [7], in experiment [8], in [9] and in experiment [10] was above 100 µM in each case.

On to `Cc1cn(CCCCCCOC(=O)NC(CCCNC(N)=O)C(=O)O)c(=O)[nH]c1=O` (stereo not given), for which the TGI in experiment [1], in experiment [2], in experiment [3], in experiment [4], in experiment [5] and in experiment [6] was above 100 µM each time. Besides, the TGI in [7], in experiment [8], in [9] and in experiment [10] was above 100 µM in each case.

Consider `CCN(CC)C(=S)SC(C(=O)Nc1nnc(-c2ccc(Cl)cc2)o1)c1ccccc1` (stereo not given), for which the TGI is 18.6 µM in experiment [1]; above 100 µM in experiment [2]; 84.1 µM in experiment [3]; above 100 µM in experiment [4]; 9.82 µM in [5]; 28.3 µM in experiment [6]. For the same compound, the TGI in experiment [7] is 16.9 µM; in [8] it was 59.7 µM; in experiment [9], 66.7 µM; in [10], 42.4 µM.

As to `CC(Nc1ccc(Cl)cc1)c1ccncc1` (stereo not given), the TGI in experiment [1], in experiment [2], in [3], in experiment [4], in experiment [5] and in [6] was above 100 µM each time. The TGI in experiment [7], in experiment [8], in experiment [9] and in experiment [10] was above 100 µM each time.

`Clc1ccc2c(c1)N(CCCN1CCCC13CCCCC3)c1ccccc1S2`: the TGI came to 41.7 µM in experiment [1]; 18.9 µM in experiment [2]; 21.4 µM in experiment [3]; 34.2 µM in experiment [4]; 28.3 µM in experiment [5]; 20.6 µM in experiment [6]. For the same compound, the TGI in [7] was found to be 15.7 µM; in experiment [8] it was 30 µM; in experiment [9] it was 32.5 µM; in experiment [10] it was 21.6 µM.

For the compound `COc1cccc2c1C(=O)c1c(O)c3c(c(O)c1C2=O)C[C@@](O)(C(C)=O)CC3OC1CC(OC2CC(N)C(O)C(C)O2)C(O)C(C)O1` (stereo not given in full), the TGI in [1] was above 100 µM; in experiment [2], 7.24 µM; in experiment [3] it was above 100 µM; in [4] it was above 100 µM; in experiment [5] it was 44 µM; in [6], above 100 µM. Besides, the TGI in experiment [7], in experiment [8], in [9] and in experiment [10] was above 100 µM in each case.

As to `O=[N+]([O-])c1ccc(-n2nc3ccc4nonc4c3n2)cc1`, the TGI in [1] is 47 µM; in experiment [2] it was above 100 µM; in experiment [3], above 100 µM; in experiment [4], 50.1 µM; in [5], above 100 µM; in experiment [6] it was above 100 µM. The TGI was above 100 µM in experiment [7], above 100 µM in experiment [8], 63.7 µM in experiment [9] and above 100 µM in experiment [10].

For `Cc1ccccc1NC(=O)O/N=C(\Cl)C(C)C`, the TGI in experiment [1] was 23.2 µM; in experiment [2], above 28 µM; in experiment [3], 34.7 µM; in experiment [4], 58.5 µM; in experiment [5], above 21.7 µM; in experiment [6], 31 µM. The TGI in experiment [7] stood at 11.7 µM; in experiment [8], 11.3 µM; in experiment [9] it was 12.6 µM; in experiment [10], 5.51 µM.

In the case of `O=C1c2cc3c(cc2-c2c1c1cc(F)c(F)cc1c(=O)n2CCCn1ccnc1)OCO3`, the GI50 was 0.27 µM in experiment [1]; below 0.01 µM in experiment [2]; below 0.01 µM in experiment [3]; 1.89 µM in [4]; below 0.01 µM in experiment [5]; 0.124 µM in experiment [6]. The GI50 in experiment [7] was 0.0189 µM; in experiment [8] it was below 0.01 µM; in [9] it was 0.0502 µM; in experiment [10], 0.0441 µM. Besides, the TGI is above 100 µM in [1]; 1.24 µM in experiment [2]; 0.199 µM in [3]; above 100 µM in experiment [4]; above 100 µM in [5]; above 100 µM in [6]. The TGI is above 100 µM in experiment [7], 0.0577 µM in experiment [8], 49.5 µM in experiment [9] and above 100 µM in experiment [10].

Consider `O=P1(N(CCCl)CCCl)Oc2ccc(Cl)cc2C(C(Cl)(Cl)Cl)c2cc(Cl)ccc2O1` (stereo not given), for which the TGI in [1] was above 100 µM; in experiment [2], above 100 µM; in experiment [3] it was 29.8 µM; in experiment [4], 41 µM; in [5], above 100 µM; in [6], above 100 µM. Moreover, the TGI was 18.9 µM in experiment [7], above 100 µM in experiment [8], above 100 µM in [9] and above 100 µM in [10].

Consider `Cc1nc(NC(C)(CO)CO)nc(N/N=C/c2ccc(Cl)cc2)c1C(=O)Nc1ccc(Cl)cc1`, for which the TGI in experiment [1], in [2], in experiment [3], in [4], in [5] and in experiment [6] was above 100 µM each time. Moreover, the TGI in [7], in [8], in [9] and in experiment [10] was above 100 µM throughout.

Regarding `CC(C)(C)C1CCC2c3c([nH]c4ccccc34)C3C(=O)N(c4ccc([N+](=O)[O-])cc4)C(=O)C3C2C1` (stereo not given), the TGI in [1] is 71.9 µM; in [2], 56.8 µM; in experiment [3], above 100 µM; in experiment [4] it was 39.3 µM; in experiment [5] it was above 100 µM; in experiment [6], above 100 µM. Also, the TGI was 19.2 µM in experiment [7], above 100 µM in experiment [8], 36.9 µM in experiment [9] and 55.3 µM in experiment [10].

With `COC(=N)C1(C#N)NC(c2ccsc2)C(C#N)(C#N)NC1c1ccsc1` (stereo not given), the TGI in experiment [1], in experiment [2], in [3], in experiment [4], in experiment [5] and in [6] was above 100 µM each time. Also, the TGI in [7], in [8], in [9] and in experiment [10] was above 100 µM in each case.

For the compound `O=CCCCCCOCc1ccccc1`, the TGI in experiment [1] is above 100 µM; in experiment [2], 37.4 µM; in [3] it was above 54.9 µM; in experiment [4], above 100 µM; in [5] it was above 69.9 µM; in [6], above 100 µM. For the same compound, the TGI is above 100 µM in experiment [7], above 100 µM in experiment [8], above 100 µM in experiment [9] and above 31.7 µM in experiment [10].

Take `COC(=O)C1OC(O[C@H]2CC[C@]3(C)[C@H]4CC=C5[C@@H]6CC(C)(C)CC[C@]6(C(=O)OC6OCC(O)C(O)C6OC6OC(C)C(OC7OCC(O)C(O)C7O)C(O)C6O)[C@H](O)C[C@@]5(C)[C@]4(C)CC[C@H]3C2(C)C)C(O)C(O)C1O` (stereo not given in full): the GI50 is 0.927 µM and 4.32 µM in experiment [1]; > 42.6 µM and 14.2 µM in [2]; 34 µM and 16.9 µM in experiment [3]; > 68.4 µM and 13.5 µM in experiment [5]; 3.06 µM and 7.31 µM in [9]. The TGI in experiment [1] is 6.7 µM and 16.5 µM; in experiment [2], above 100 µM; in experiment [3] it was > 100 µM and 33.4 µM; in experiment [4], 35.9 µM and 35.2 µM; in [5] it was above 100 µM; in [6] it was 16.9 µM and 16.3 µM. For the same compound, the TGI in experiment [7] was 9.7 µM and 15.3 µM; in [8], > 100 µM and 27.2 µM; in experiment [9] it was 8.86 µM and 21.8 µM; in [10], above 100 µM.

`CC(=O)NC1C(OCc2ccccc2)OC(CO)C(O)C1OC(C)C(=O)N[C@@H](C)C(=O)N[C@H](CCC(=O)NCCNCCNc1c2ccccc2nc2cccc([N+](=O)[O-])c12)C(N)=O` (stereo not given in full): the TGI in experiment [1] is 0.0817 µM; in experiment [2], above 100 µM; in [3], 0.0486 µM; in experiment [4] it was 5.13 µM; in [5] it was above 100 µM; in experiment [6] it was 0.891 µM. Moreover, the TGI in [7] is 0.668 µM; in experiment [8] it was 0.598 µM; in experiment [9], 0.221 µM; in [10], above 100 µM.

In the case of `Cc1c(C)c2c(c(N)c1C#N)C(=O)N(N)C2=O`, the TGI in [1], in [2], in [3], in experiment [4], in experiment [5] and in experiment [6] was above 100 µM each time. The TGI in experiment [7], in experiment [8], in experiment [9] and in [10] was above 100 µM throughout.

Consider `CN1CCN(C(=O)c2cn(Cc3cncn3Cc3ccc4c(c3)OCO4)cc2-c2cccc3ccccc23)CC1`, for which the TGI in experiment [1] was above 100 µM; in experiment [2], 33.6 µM; in [3], above 100 µM; in [4] it was above 100 µM; in experiment [5] it was above 77.2 µM; in experiment [6] it was above 86.3 µM. The TGI in [7] is above 95.5 µM; in [8], above 100 µM; in experiment [9], above 63 µM; in experiment [10], 53.5 µM.

For the compound `NC(=O)[C@H](Cc1ccc(O)cc1)Nc1c(O)c2c(c(O)c1Cl)C(=O)C=CC2=O`, the TGI in experiment [1] is 3.41 µM; in experiment [2] it was 2.43 µM; in experiment [3], above 10 µM; in experiment [4] it was above 9.16 µM; in experiment [5] it was 1.04 µM; in experiment [6], 5.85 µM. The TGI in [7] amounted to 6.2 µM; in experiment [8], 5.27 µM; in [9], 5.26 µM; in experiment [10], 5.37 µM.
